Laboratory results published in US5498775A, “Polyanionic benzylglycosides as inhibitors of smooth muscle cell proliferation” (American Home Products Corporation, priority 1994, dated 1996).
Structures can show the parent of a compound that is named as a salt.

Tests used:
[1] = system: Porcine Smooth Muscle Cell; test: Porcine smooth muscle cell antiproliferation, 3H thymidine incorporation; assay type: cell-based; settings: for IC50: porcine aortic smooth muscle cells, 3H thymidine incorporation
Description: B. Effects of compounds on cell proliferation using ^3 H Thymidine incorporation
Cells were assayed in early passage (generally passage 3-7) at sub-confluent conditions. […] At sub-confluence, the cells were placed in a defined serum free medium (AIM-V; Gibco) for 24-48 h prior to initiating the experimental protocol.
Growth factor and serum stimulations were optimized for each cell type.
Compounds were added to each well at 50 fold dilution (20 μL/well) and the plates were incubated for 24-36 h at 37° C. in 5% CO2. […] Compounds were routinely assayed at 1, 10, and 100 μM.
At the completion of the experiment, plates were placed on ice, washed three times with ice cold PBS and incubated in ice cold 10% trichloroacetic acid (TCA) for 30 min to remove acid soluble proteins. Solution was transferred to scintillation vials containing 0.4N HCl (500 μL/vial to neutralize NaOH) and each well was rinsed two times with water (500 μL) for a total volume of 2 mL/vial.
Data was obtained, in triplicate, for both control and experimental samples. […] Experimental data was obtained from cells maximally stimulated with growth factor or serum and treated with compound. Data was expressed as a percent of control from which IC50 s could be determined.

[2] = system: normal human plasma; test: Anticoagulant activity, partial thromboplastin time (APTT) assay; assay type: biochemical; settings: for Anticoagulation Activity (APTT) Relative to Heparin: ratio >1 indicates weaker activity relative to heparin on a μg/mL comparison
Description: A BBL Fibrometer automatic precesion coagulation timer utilizing a 0.3 mL probe was employed. An Ellagic acid activated partial thromboplastin was used for these experiments. This reagent was added to human citrated plasma equilibrated at 37° C. in a plastic well in the clot timer. Calcium at 37° C. was added, the clot timer was started and the time for fibrin clot formation (in seconds) was recorded. […] Clotting tests at all concentrations were run in triplicate. Analysis of variance for a randomized block design was used to determine the significance of differences observed in the clotting times.

Row | Compound | Anticoagulation Activity (APTT) Relative to Heparin [2] | also measured
1 | Decanedioic Acid Bis{[3,5-bis(hepta-O-sulfato-β-D-cellobiosyloxymethyl}phenyl]amide} Octacosasodium Salt [EXAMPLE 14] | 6.7 | IC50 [1]: 3 µM
2 | O=C(Nc1cc(CO[C@@H]2O[C@H](COS(=O)(=O)[O-])[C@@H](O[C@@H]3O[C@H](COS(=O)(=O)[O-])[C@H](OS(=O)(=O)[O-])[C@H](OS(=O)(=O)[O-])[C@H]3OS(=O)(=O)[O-])[C@H](OS(=O)(=O)[O-])[C@H]2OS(=O)(=O)[O-])cc(CO[C@@H]2O[C@H](COS(=O)(=O)[O-])[C@@H](O[C@@H]3O[C@H](COS(=O)(=O)[O-])[C@H](OS(=O)(=O)[O-])[C@H](OS(=O)(=O)[O-])[C@H]3OS(=O)(=O)[O-])[C@H](OS(=O)(=O)[O-])[C@H]2OS(=O)(=O)[O-])c1)c1ccc(-c2ccc(C(=O)Nc3cc(CO[C@@H]4O[C@H](COS(=O)(=O)[O-])[C@@H](O[C@@H]5O[C@H](COS(=O)(=O)[O-])[C@H](OS(=O)(=O)[O-])[C@H](OS(=O)(=O)[O-])[C@H]5OS(=O)(=O)[O-])[C@H](OS(=O)(=O)[O-])[C@H]4OS(=O)(=O)[O-])cc(CO[C@@H]4O[C@H](COS(=O)(=O)[O-])[C@@H](O[C@@H]5O[C@H](COS(=O)(=O)[O-])[C@H](OS(=O)(=O)[O-])[C@H](OS(=O)(=O)[O-])[C@H]5OS(=O)(=O)[O-])[C@H](OS(=O)(=O)[O-])[C@H]4OS(=O)(=O)[O-])c3)cc2)cc1.[Na+].[Na+].[Na+].[Na+].[Na+].[Na+].[Na+].[Na+].[Na+].[Na+].[Na+].[Na+].[Na+].[Na+].[Na+].[Na+].[Na+].[Na+].[Na+].[Na+].[Na+].[Na+].[Na+].[Na+].[Na+].[Na+].[Na+].[Na+] [EXAMPLE 16, Biphenyl-4,4'-dicarboxylic Acid Bis{[3,5-bis(hepta-O-sulfato-β-D-lactosyloxymethyl)phenyl]amide}Octacosasodium Salt] | 2.2 | IC50 [1]: 3.6 µM
3 | O=C(Nc1cc(CO[C@@H]2O[C@H](COS(=O)(=O)O)[C@@H](OS(=O)(=O)O)[C@H](OS(=O)(=O)O)[C@H]2OS(=O)(=O)O)cc(CO[C@@H]2O[C@H](COS(=O)(=O)O)[C@@H](OS(=O)(=O)O)[C@H](OS(=O)(=O)O)[C@H]2OS(=O)(=O)O)c1)c1ccc(-c2ccc(C(=O)Nc3cc(CO[C@@H]4O[C@H](COS(=O)(=O)O)[C@@H](OS(=O)(=O)O)[C@H](OS(=O)(=O)O)[C@H]4OS(=O)(=O)O)cc(CO[C@@H]4O[C@H](COS(=O)(=O)O)[C@@H](OS(=O)(=O)O)[C@H](OS(=O)(=O)O)[C@H]4OS(=O)(=O)O)c3)cc2)cc1 [EXAMPLE 17, Biphenyl-4,4'-dicarboxylic Acid Bis{[3,5-bis(tetra-O-sulfato-β-D-glucosyloxymethyl)phenyl]amide}Hexadecasodium Salt] | – | Anticoagulation Activity (APTT), result in words ([2]; at 50 μg/mL): insignificant activity
4 | O=C(Nc1cc(CO[C@@H]2O[C@H](COS(=O)(=O)O)[C@@H](O[C@@H]3O[C@H](COS(=O)(=O)O)[C@@H](OS(=O)(=O)O)[C@H](OS(=O)(=O)O)[C@H]3OS(=O)(=O)O)[C@H](OS(=O)(=O)O)[C@H]2OS(=O)(=O)O)cc(CO[C@@H]2O[C@H](COS(=O)(=O)O)[C@@H](O[C@@H]3O[C@H](COS(=O)(=O)O)[C@@H](OS(=O)(=O)O)[C@H](OS(=O)(=O)O)[C@H]3OS(=O)(=O)O)[C@H](OS(=O)(=O)O)[C@H]2OS(=O)(=O)O)c1)c1ccc(C(=O)Nc2cc(CO[C@@H]3O[C@H](COS(=O)(=O)O)[C@@H](O[C@@H]4O[C@H](COS(=O)(=O)O)[C@@H](OS(=O)(=O)O)[C@H](OS(=O)(=O)O)[C@H]4OS(=O)(=O)O)[C@H](OS(=O)(=O)O)[C@H]3OS(=O)(=O)O)cc(CO[C@@H]3O[C@H](COS(=O)(=O)O)[C@@H](O[C@@H]4O[C@H](COS(=O)(=O)O)[C@@H](OS(=O)(=O)O)[C@H](OS(=O)(=O)O)[C@H]4OS(=O)(=O)O)[C@H](OS(=O)(=O)O)[C@H]3OS(=O)(=O)O)c2)cc1 [EXAMPLE 23, N,N '-Bis[3,5-bis(hepta-O-sulfato-β-D-cellobiosyloxymethyl)phenyl]terephthalamide Octacosasodium Salt] | 2.0 | –
5 | Cc1ccc(CO[C@@H]2O[C@H](COS(=O)(=O)O)[C@@H](OS(=O)(=O)O)[C@H](OS(=O)(=O)O)[C@H]2OS(=O)(=O)O)cc1NC(=O)CCC(=O)Nc1cc(CO[C@@H]2O[C@H](COS(=O)(=O)O)[C@@H](OS(=O)(=O)O)[C@H](OS(=O)(=O)O)[C@H]2OS(=O)(=O)O)ccc1C [EXAMPLE 25, N,N'-Bis[2-methyl-5-(2,3,4,6-tetra-O-suifato-β-D-glucopyranosyloxymethyl)phenyl]succinamide Octasodium Salt] | – | inhibition at 50 µg/mL ([1]; Sus scrofa, read-out: Porcine Smooth Muscle Cell Antiproliferation, % Inhibition at 50 μg/mL): 8%
6 | O=C(Nc1cc(CO[C@@H]2O[C@H](COS(=O)(=O)O)[C@@H](O[C@@H]3O[C@H](COS(=O)(=O)O)[C@@H](OS(=O)(=O)O)[C@H](OS(=O)(=O)O)[C@H]3OS(=O)(=O)O)[C@H](OS(=O)(=O)O)[C@H]2OS(=O)(=O)O)cc(CO[C@@H]2O[C@H](COS(=O)(=O)O)[C@@H](O[C@@H]3O[C@H](COS(=O)(=O)O)[C@@H](OS(=O)(=O)O)[C@H](OS(=O)(=O)O)[C@H]3OS(=O)(=O)O)[C@H](OS(=O)(=O)O)[C@H]2OS(=O)(=O)O)c1)c1ccc(-c2ccc(C(=O)Nc3cc(CO[C@@H]4O[C@H](COS(=O)(=O)O)[C@@H](O[C@@H]5O[C@H](COS(=O)(=O)O)[C@@H](OS(=O)(=O)O)[C@H](OS(=O)(=O)O)[C@H]5OS(=O)(=O)O)[C@H](OS(=O)(=O)O)[C@H]4OS(=O)(=O)O)cc(CO[C@@H]4O[C@H](COS(=O)(=O)O)[C@@H](O[C@@H]5O[C@H](COS(=O)(=O)O)[C@@H](OS(=O)(=O)O)[C@H](OS(=O)(=O)O)[C@H]5OS(=O)(=O)O)[C@H](OS(=O)(=O)O)[C@H]4OS(=O)(=O)O)c3)cc2)cc1 [EXAMPLE 15, Biphenyl-4,4'-dicarboxylic Acid Bis{[3,5-bis(hepta-O-sulfato-β-D-cellobiosyloxymethyl)phenyl]amide}Octacosasodium Salt] | 2.0-2.3 | –
7 | O=C(CCC(=O)Nc1cc(CO[C@@H]2O[C@H](COS(=O)(=O)O)[C@@H](O[C@@H]3O[C@H](COS(=O)(=O)O)[C@@H](OS(=O)(=O)O)[C@H](OS(=O)(=O)O)[C@H]3OS(=O)(=O)O)[C@H](OS(=O)(=O)O)[C@H]2OS(=O)(=O)O)cc(CO[C@@H]2O[C@H](COS(=O)(=O)O)[C@@H](O[C@@H]3O[C@H](COS(=O)(=O)O)[C@@H](OS(=O)(=O)O)[C@H](OS(=O)(=O)O)[C@H]3OS(=O)(=O)O)[C@H](OS(=O)(=O)O)[C@H]2OS(=O)(=O)O)c1)Nc1cc(CO[C@@H]2O[C@H](COS(=O)(=O)O)[C@@H](O[C@@H]3O[C@H](COS(=O)(=O)O)[C@@H](OS(=O)(=O)O)[C@H](OS(=O)(=O)O)[C@H]3OS(=O)(=O)O)[C@H](OS(=O)(=O)O)[C@H]2OS(=O)(=O)O)cc(CO[C@@H]2O[C@H](COS(=O)(=O)O)[C@@H](O[C@@H]3O[C@H](COS(=O)(=O)O)[C@@H](OS(=O)(=O)O)[C@H](OS(=O)(=O)O)[C@H]3OS(=O)(=O)O)[C@H](OS(=O)(=O)O)[C@H]2OS(=O)(=O)O)c1 [EXAMPLE 22, N,N'-Bis[3,5-bis(hepta-O-sulfato-β-D-cellobiosyloxymethyl)phenyl]succinamide Octacosasodium Salt] | 2.0 | –
